Experimental data reported in paper PMC5385487, “Structural insights into the production of 3-hydroxypropionic acid by aldehyde dehydrogenase from Azospirillum brasilense” (Scientific Reports, 2017).

What was measured:
[1] = target: T1, AbKGSADH (α-ketoglutarate-semialdehyde dehydrogenase) (Azospirillum brasilense, UniProt Q1JUP4); experiment: X-ray crystal structure, […] Å in Table […] ([…] Å in text); settings: NAD-binding site between N- and C-terminal domains
T1 construct: gene araE; Met1-Val481 modelled; tetramer about 200 kDa

[2] = target: the molecule itself; experiment: crystal structure; apo-form and complex with NAD+; space group P4(3)22, two molecules in the asymmetric unit, tetramer generated by crystallographic two-fold symmetry; crystals from 16% PEG 3350, 0.1 M sodium cacodylate pH 6.5, 0.2 M MgCl2, 295 K

NC(=O)c1ccc[n+]([C@@H]2O[C@H](COP(=O)(O)OP(=O)(O)OC[C@H]3O[C@@H](n4cnc5c(N)ncnc54)[C@H](O)[C@@H]3O)[C@@H](O)[C@H]2O)c1 [NAD^+]
X-ray crystal structure, 2.30 Å in Table 1 (2.6 Å in text) [1]: determined the crystal structure of the protein in complex with NAD^+

B1: α-ketoglutarate-semialdehyde dehydrogenase from Azospirillum basilensis (AbKGSADH) (enzyme, UniProt Q1JUP4 1-481, looked up)
chain: MANVTYTDTQLLIDGEWVDAASGKTIDVVNPATGKPIGRVAHAGIADLDRALAAAQSGFEAWRKVPAHERAATMRKAAALVRERADAIAQLMTQEQGKPLTEARVEVLSAADIIEWFADEGRRVYGRIVPPRNLGAQQTVVKEPVGPVAAFTPWNFPVNQVVRKLSAALATGCSFLVKAPEETPASPAALLRAFVDAGVPAGVIGLVYGDPAEISSYLIPHPVIRKVTFTGSTPVGKQLASLAGLHMKRATMELGGHAPVIVAEDADVALAVKAAGGAKFRNAGQVCISPTRFLVHNSIRDEFTRALVKHAEGLKVGNGLEEGTTLGALANPRRLTAMASVIDNARKVGASIETGGERIGSEGNFFAPTVIANVPLDADVFNNEPFGPVAAIRGFDKLEEAIAEANRLPFGLAGYAFTRSFANVHLLTQRLEVGMLWINQPATPWPEMPFGGVKDSGYGSEGGPEALEPYLVTKSVTVMAV
notes: α-ketoglutarate-semialdehyde dehydrogenase (KGSADH) of the alternative L-arabinose pathway, Azospirillum brasilense; the limits Met1 and Val481 are those of the domains told for the crystal structure; The vector adds a 6xHis tag and an rTEV protease site at the N-terminus; no cleavage step is described; also called aldehyde dehydrogenase from Azospirillum brasilense; 3-HP producing ALDH; source: …
stoichiometry N [2]: 4
